What was measured:
Assay type in all cases: in vivo
[1] = system: wildtype (ts1-ref/+) sibling plants; test: Jasmonic acid treatment of heterozygous wild-type sibling maize plants; settings: 1 mM JA, three times at 48-hour intervals
Experimental: (§1) Maize plants were grown under greenhouse conditions. Two seeds were planted in 2-gallon reusable pots containing Super-Fine Germinating Mix (Fafard, Agawam, Mass., USA) or Redi-earth Professional Growing Mix (Sun Gro, Bellevue, Wash., USA). Fertilization was performed with controlled release Osmocote Plus 15-9-12 (Scotts, Marysville, Ohio, USA) following the manufacturer recommendations. Additional watering was performed with 4% ammonium iron citrate (Sigma-Aldrich) every 2 weeks to prevent chlorosis. Greenhouse average temperatures were 28° C. (day) and 21° C. (night). Supplemental lightning was provided to achieve a 16:8 hour photoperiod yearlong.
(§2) Tassels of about 1 cm were considered to be at an ideal stage to initiate chemical treatments. Since a thick leaf whorl covers the maize tassel at this time of development, only a destructive dissection of the plant permits to assess with certainty the stage of tassel development (Bonnet, 1940, J. Agricult. Res. 60:25; Bonnet, 1948, Ann. Mo. Bot. Gard. 35:269). Additionally, the sex determination phase was reached within a wide time window, between 28 and 46 days post-planting, depending on the growing conditions. Leaf number, node number or internode distance were not always reliable criteria to predict the tassel developmental stage. […]

[2] = system: ts1 mutant (ts1-ref/ts1-ref) plants; test: Jasmonic acid treatment of ts1 mutant maize tassels
Experimental: as §1
Tassels of about 1 cm were considered to be at an ideal stage to initiate chemical treatments. Since a thick leaf whorl covers the maize tassel at this time of development, only a destructive dissection of the plant permits to assess with certainty the stage of tassel development (Bonnet, 1940, J. Agricult. Res. 60:25; Bonnet, 1948, Ann. Mo. Bot. Gard. 35:269). Additionally, the sex determination phase was reached within a wide time window, between 28 and 46 days post-planting, depending on the growing conditions. Leaf number, node number or internode distance were not always reliable criteria to predict the tassel developmental stage.
Seedlings from a family segregating 1:1 for wild-type (ts1-ref/Ts1) and ts1 mutant (ts1-ref/ts1-ref) plants were genotyped for the Ts1 and ts1-ref alleles with a PCR-based assay. […] Jasmonic acid (JA, Sigma-Aldrich) was dissolved at a concentration of 200 mM in absolute ethanol and stored at −20° C. Prior to plant treatment, the JA stock solution was diluted to a concentration of 1 mM in deionized water. Control plants were treated with a 0.005% ethanol solution (“blank” treatment or negative control). One ml of the corresponding solution was applied into the apical leaf cavity of each plant. Treatments were performed three times at 48-hour intervals.
The developmental timing of the pistil abortion process occurs in tassel inflorescences when they are 1.0 to 3.0 cm in length (Irish & Nelson, 1993, Am. J. Bot. 80:292), which was also the stage at which ts1 expression occurred in the subtending glumes (FIGS. 6B to 6D). A 0.005% ethanol solution, with or without 1 mM JA, was applied to tassels of ˜1 cm in wildtype (ts1-ref/+) or ts1 mutant (ts1-ref/ts1-ref) sibling plants.

[3] = system: mutant ts2-ref/ts2-ref and ts2-ref/+ plants; test: Jasmonic acid treatment of ts2 maize plants; settings: JA applied as for ts1 plants
Experimental: as §1, §2

[4] = 1 mM JA, three times at 48-hour intervals

CC/C=C\C[C@H]1C(=O)CC[C@@H]1CC(=O)O [JA, (1R,2R)-3-oxo-2-(2Z)-2-pentenylcyclopentaneacetic acid] was tested, and the “effect of treatment on heterozygous ts1-ref/+ sibs” value [1] was “nor did JA treatment affect heterozygous ts1-ref/+ sibs”, the “sexual phenotype of tassel (feminization; staminate spikelets)” value ([2]; 1 mM JA in 0.005% ethanol, 1 ml into apical leaf cavity, three times at 48-hour intervals, tassels of ~1 cm) was “reversed feminization” and the “glume morphology of treated ts1 mutants” value [2, 4] was “elongated, were covered with numerous trichomes, and had a ring of anthocyanin deposited at the base”. The “time to appearance of wildtype rescue in glumes after treatment” value [2, 4] was 3 to 4 weeks, the “stamen emergence from treated ts1 mutant spikelets” value ([2]; later in floral development) was “stamens emerged” and the “pollen viability of staminate florets from rescued ts1/ts1 plants” value ([2]; pollen used for self-pollination and test crosses) was “produced viable pollen”. For the same compound, the “completeness of rescued tassel inflorescence phenotype” value ([2]; some spikelets bisexual, others at base pistillate) was “incomplete” and the “response of ts2 plants to treatment” value [3] was “responded in the same manner as the JA-treated ts1 mutants”.

From US9258998B2, “Methods for controlling flower development in plants” (Yale University, priority 2009, dated 2016)
